Consider 13 molecules from patent US11464770B2, “Anticancer pharmaceutical composition” (NATIONAL CANCER CENTER, priority 2016, dated 2022).

pIC50: −log10 of the molar value. Read-outs that look alike come from different tables or passages of the source. A value given as a limit tells only on which side of the number the result lay.

The test system of test [1] is lung cancer cell lines (e.g. NCI-H23, NCI-H1229). Briefly: Cell based assay, cell viability (CellTiter-Glo), lung cancer cell lines. The settings on record: Homo sapiens, 72 hours treatment, CellTiter-Glo. The method in brief:
(§1)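 Luminescent ATP assay quantified surviving cells after three days of treatment. Compound was applied at final concentrations of 0 to 2 μM, starting 24 h after cells were seeded.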
In general terms: Cellular ATP, detected with luciferase, serves as a proxy for viable cell number.

The next test has as its system brain cancer cell lines. Briefly: Cell based assay, cell viability (CellTiter-Glo), brain cancer cell lines. The settings on record: Homo sapiens.
A further test deals with melanoma cell lines. Kind of test: Cell based assay, cell viability (CellTiter-Glo), melanoma cell lines. The settings on record: Homo sapiens; LOX-IMVI cell line. In short, it runs like this:
as §1

Setting [2] is: A549 cells, read-out: IC50, lung cancer cell line A549.
Where [3] appears, read: DMS 114 cells, read-out: IC50, lung cancer cell line DMS 114.
Where [4] appears, read: NCI-H23 cells, read-out: IC50, lung cancer cell line NCI-H23.
[5] abbreviates: NCI-H460 cells, read-out: IC50, lung cancer cell line NCI-H460.
Setting [6] is: NCI-H522 cells, read-out: IC50, lung cancer cell line NCI-H522.
[7] abbreviates: NCI-H1299 cells, read-out: IC50, lung cancer cell line NCI-H1299.
Where [8] appears, read: NCI-H1437 cells, read-out: IC50, lung cancer cell line NCI-H1437.
Setting [9] is: U138-MG, U-138 MG cell line, read-out: IC50, Brain cancer cell line U-138 MG.
Where [10] appears, read: T98G cell line, read-out: IC50, Brain cancer cell line T98G.
The mark [11] stands for this setting: U-251 MG cell line, read-out: IC50, Brain cancer cell line U-251 MG.

Regarding `CC(=O)c1c(SCc2cccc(I)c2)[nH]c2c(Br)ccc(Cl)c2c1=O` [Compound 47, 3-acetyl-8-bromo-5-chloro-2-((3-iodobenzyl)thio)quinolin-4(1H)-one], the pIC50 (commonly the negative decadic logarithm of the IC50, by convention in mol/L) in test [1] (setting [2]) is less than 5.70; in test [1] (setting [3]), less than 5.70; in test [1] (MRC-5 cells, read-out: IC50), less than 5.70; in test [1] (setting [4]), less than 5.70; in test [1] (setting [5]) it was less than 5.70; in test [1] (setting [6]) it was less than 5.70. Moreover, the pIC50 in test [1] (setting [7]) was less than 5.70; in test [1] (setting [8]), less than 5.00; in the test with brain cancer cell lines (setting [9]) it was less than 5.00; in the test with brain cancer cell lines (setting [10]), less than 5.00; with brain cancer cell lines (setting [11]) it was less than 5.70; in the test with melanoma cell lines it was less than 5.70.
As for `CC(=O)c1c([S+]([O-])Cc2cccc(I)c2)[nH]c2c(Br)ccc(Cl)c2c1=O` (stereo not drawn) [Compound 48, 3-acetyl-8-bromo-5-chloro-2-((3-iodobenzyl)sulfinyl)quinolin-4(1H)-one], the pIC50 in test [1] (setting [2]) is less than 5.70; in test [1] (setting [3]), less than 5.70; in test [1] (MRC-5 cells, read-out: IC50) it was less than 5.70; in test [1] (setting [4]), 5.82; in test [1] (setting [5]), less than 5.70; in test [1] (setting [6]) it was less than 5.70. The pIC50 in test [1] (setting [7]) is less than 5.70; in test [1] (setting [8]) it was less than 5.00; in the test with brain cancer cell lines (setting [9]), less than 5.70; in the test with brain cancer cell lines (setting [10]) it was less than 5.00; in the test with brain cancer cell lines (setting [11]) it was less than 5.70; with melanoma cell lines it was less than 5.70.
With `CC(=O)c1c(SCc2ccccc2)nc2c(Br)ccc(Cl)c2c1O` [Compound 52, 1-(2-(benzylthio)-8-bromo-5-chloro-4-hydroxyquinolin-3-yl)ethan-1-one], the negative logarithm of the IC50 (pIC50) was less than 5.70 in test [1] (setting [2]); less than 5.70 in test [1] (setting [3]); less than 5.70 in test [1] (MRC-5 cells, read-out: IC50); less than 5.70 in test [1] (setting [4]); less than 5.70 in test [1] (setting [5]); less than 5.70 in test [1] (setting [6]). Further, the pIC50 in test [1] (setting [7]) is less than 5.70; in test [1] (setting [8]), less than 5.00; in the test on brain cancer cell lines (setting [9]) it was less than 5.00; with brain cancer cell lines (setting [10]) it was less than 5.00; with brain cancer cell lines (setting [11]) it was less than 5.70; with melanoma cell lines, less than 5.70.
Turning to `CC(=O)c1c([S+]([O-])Cc2ccccc2)nc2c(Br)ccc(Cl)c2c1O` (stereo not drawn) [Compound 53, 1-(2-(benzylsulfinyl)-8-bromo-5-chloro-4-hydroxyquinolin-3-yl)ethan-1-one], the pIC50 in test [1] (setting [2]) is less than 5.70; in test [1] (setting [3]), less than 5.70; in test [1] (MRC-5 cells, read-out: IC50), less than 5.70; in test [1] (setting [4]), less than 5.70; in test [1] (setting [5]), less than 5.70; in test [1] (setting [6]), less than 5.70. The pIC50 in test [1] (setting [7]) was less than 5.70; in test [1] (setting [8]), less than 5.00; with brain cancer cell lines (setting [9]) it was less than 5.00; with brain cancer cell lines (setting [10]) it was less than 5.00; with brain cancer cell lines (setting [11]), less than 5.70; with melanoma cell lines, less than 5.70.
`CC(=O)c1c(S(=O)(=O)Cc2ccccc2)nc2c(Br)ccc(Cl)c2c1O` [Compound 54, 1-(2-(benzylsulfonyl)-8-bromo-5-chloro-4-hydroxyquinolin-3-yl)ethan-1-one]: the pIC50 in test [1] (setting [2]) is less than 5.70; in test [1] (setting [3]), less than 5.70; in test [1] (MRC-5 cells, read-out: IC50) it was less than 5.70; in test [1] (setting [4]), less than 5.70; in test [1] (setting [5]) it was less than 5.70; in test [1] (setting [6]) it was less than 5.70. Besides, the pIC50 in test [1] (setting [7]) is less than 5.70; in test [1] (setting [8]), less than 5.00; with brain cancer cell lines (setting [9]), less than 5.00; in the test on brain cancer cell lines (setting [10]), less than 5.00; in the test with brain cancer cell lines (setting [11]), less than 5.70; in the test with melanoma cell lines, less than 5.70.
Take `CC(=O)c1c([S+]([O-])Cc2ccccc2C#N)[nH]c2c(Br)ccc(Cl)c2c1=O` (stereo not drawn) [Compound 58, 2-(((3-acetyl-8-bromo-5-chloro-4-oxo-1,4-dihydroquinolin-2-yl)sulfinyl)methyl)benzonitrile]: the pIC50 in test [1] (setting [2]) is less than 5.70; in test [1] (setting [3]), less than 5.70; in test [1] (MRC-5 cells, read-out: IC50), 6.12; in test [1] (setting [4]) it was 6.10; in test [1] (setting [5]), less than 5.70; in test [1] (setting [6]), 5.71. The negative-log IC50 (pIC50) was 5.94 in test [1] (setting [7]); less than 5.00 in test [1] (setting [8]); 5.84 in the test with brain cancer cell lines (setting [9]); less than 5.00 in the test with brain cancer cell lines (setting [10]); 6.08 with brain cancer cell lines (setting [11]); 6.06 with melanoma cell lines.
As for `COCSc1[nH]c2c(Br)ccc(Cl)c2c(=O)c1C(C)=O` [Compound 61, 3-acetyl-8-bromo-5-chloro-2-((methoxymethyl)thio)quinolin-4(1H)-one], the pIC50 in test [1] (setting [2]) was less than 5.70; in test [1] (setting [3]) it was less than 5.70; in test [1] (MRC-5 cells, read-out: IC50), less than 5.70; in test [1] (setting [4]), less than 5.70; in test [1] (setting [5]) it was less than 5.70; in test [1] (setting [6]), less than 5.70. In addition, the pIC50 is less than 5.70 in test [1] (setting [7]); less than 5.00 in test [1] (setting [8]); less than 5.00 in the test on brain cancer cell lines (setting [9]); less than 5.00 with brain cancer cell lines (setting [10]); less than 5.70 with brain cancer cell lines (setting [11]); less than 5.70 in the test with melanoma cell lines.
Turning to `CC(=O)c1c(S)[nH]c2c(Br)ccc(Cl)c2c1=O` [Compound 62, 3-acetyl-8-bromo-5-chloro-2-mercaptoquinolin-4(1H)-one], the pIC50 in test [1] (setting [2]) was less than 5.70; in test [1] (setting [3]), less than 5.70; in test [1] (MRC-5 cells, read-out: IC50) it was less than 5.70; in test [1] (setting [4]), less than 5.70; in test [1] (setting [5]) it was less than 5.70; in test [1] (setting [6]) it was less than 5.70. Moreover, the pIC50 was less than 5.70 in test [1] (setting [7]); less than 5.00 in test [1] (setting [8]); less than 5.00 with brain cancer cell lines (setting [9]); less than 5.00 in the test on brain cancer cell lines (setting [10]); less than 5.70 with brain cancer cell lines (setting [11]); less than 5.70 with melanoma cell lines.
`CC(=O)c1c([S+]([O-])Cc2ccc(C(=O)c3ccccc3)cc2)[nH]c2c(Br)ccc(Cl)c2c1=O` (stereo not drawn) [Compound 63, 3-acetyl-2-((4-benzoylbenzyl)sulfinyl)-8-bromo-5-chloroquinolin-4(1H)-one]: the negative-log IC50 (pIC50) was less than 5.70 in test [1] (setting [2]); less than 5.70 in test [1] (setting [3]); less than 5.70 in test [1] (MRC-5 cells, read-out: IC50); 5.77 in test [1] (setting [4]); less than 5.70 in test [1] (setting [5]); less than 5.70 in test [1] (setting [6]). Further, the pIC50 in test [1] (setting [7]) was less than 5.70; in test [1] (setting [8]), less than 5.00; in the test on brain cancer cell lines (setting [9]) it was less than 5.70; with brain cancer cell lines (setting [10]) it was less than 5.00; in the test with brain cancer cell lines (setting [11]), less than 5.70; with melanoma cell lines it was less than 5.70.
Consider `CC(=O)c1c([S+]([O-])CC#N)[nH]c2c(Br)ccc(Cl)c2c1=O` (stereo not drawn) [Compound 65, 2-((3-acetyl-8-bromo-5-chloro-4-oxo-1,4-dihydroquinolin-2-yl)sulfinyl)acetonitrile], for which the negative logarithm of the IC50 (pIC50) was less than 5.70 in test [1] (setting [2]); less than 5.70 in test [1] (setting [3]); less than 5.70 in test [1] (MRC-5 cells, read-out: IC50); less than 5.70 in test [1] (setting [4]); less than 5.70 in test [1] (setting [5]); less than 5.70 in test [1] (setting [6]). In addition, the pIC50 in test [1] (setting [7]) was less than 5.70; in test [1] (setting [8]), less than 5.00; in the test with brain cancer cell lines (setting [9]) it was less than 5.00; with brain cancer cell lines (setting [10]), less than 5.00; with brain cancer cell lines (setting [11]), less than 5.70; in the test with melanoma cell lines, less than 5.70.
For the molecule `CC(=O)c1c(SCC#N)[nH]c2c(Br)ccc(Cl)c2c1=O` [Compound 66, 2-((3-acetyl-8-bromo-5-chloro-4-oxo-1,4-dihydroquinolin-2-yl)thio)acetonitrile], the pIC50 in test [1] (setting [2]) is less than 5.70; in test [1] (setting [3]), less than 5.70; in test [1] (MRC-5 cells, read-out: IC50), less than 5.70; in test [1] (setting [4]), less than 5.70; in test [1] (setting [5]) it was less than 5.70; in test [1] (setting [6]), less than 5.70. Also, the pIC50 was less than 5.70 in test [1] (setting [7]); less than 5.00 in test [1] (setting [8]); less than 5.00 in the test on brain cancer cell lines (setting [9]); less than 5.00 in the test with brain cancer cell lines (setting [10]); less than 5.70 in the test on brain cancer cell lines (setting [11]); less than 5.70 in the test on melanoma cell lines.
For `CC(=O)c1c(S/C=C\C(=O)O)[nH]c2c(Br)ccc(Cl)c2c1=O` [Compound 67, (Z)-3-((3-acetyl-8-bromo-5-chloro-4-oxo-1,4-dihydroquinolin-2-yl)thio)acrylic acid], the pIC50 was less than 5.70 in test [1] (setting [2]); less than 5.70 in test [1] (setting [3]); less than 5.70 in test [1] (MRC-5 cells, read-out: IC50); less than 5.70 in test [1] (setting [4]); less than 5.70 in test [1] (setting [5]); less than 5.70 in test [1] (setting [6]). In addition, the pIC50 in test [1] (setting [7]) was less than 5.70; in test [1] (setting [8]), less than 5.00; in the test on brain cancer cell lines (setting [9]) it was less than 5.00; in the test with brain cancer cell lines (setting [10]) it was less than 5.00; in the test on brain cancer cell lines (setting [11]), less than 5.70; in the test with melanoma cell lines it was less than 5.70.
For `CC(=O)c1c([S+]([O-])Cc2ccc(S(F)(F)(F)(F)F)cc2)[nH]c2c(Br)ccc(Cl)c2c1=O` (stereo not drawn) [Compound 68, 3-acetyl-8-bromo-5-chloro-2-((4-(pentafluoro-16-sulfanyl)benzyl)sulfinyl)quinolin-4(1H)-one], the pIC50 in test [1] (setting [2]) is 5.86; in test [1] (setting [3]), less than 5.70; in test [1] (MRC-5 cells, read-out: IC50), 6.02; in test [1] (setting [4]), 6.11; in test [1] (setting [5]), 5.85; in test [1] (setting [6]) it was less than 5.70. The pIC50 was 5.91 in test [1] (setting [7]); less than 5.00 in test [1] (setting [8]); 5.94 in the test with brain cancer cell lines (setting [9]); less than 5.70 in the test on brain cancer cell lines (setting [10]); 6.03 in the test with brain cancer cell lines (setting [11]); 6.02 in the test with melanoma cell lines.
